“Also recorded” adds a separate entry of the source. Where no end group is shown, it is not given here.
Assays:
hKv1.3 = assay: Whole-cell patch-clamp current recording, hKv1.3; assay type: cell-based, human; details: for hKv1.3 IV curve, p vs. 0 nM: IV curves −130 to 50 mV (Figure 3), two-way ANOVA; for hKv1.3 IV curve, p vs. 0 nM / reduction of hKv1.3 current amplitude at 50 mV, p vs. 0 nM: Dunnett's post hoc; for reduction of hKv1.3 current amplitude at 50 mV, p vs. 0 nM: one-way ANOVA; for current of hKv1.3 (current amplitude), effect of treatment / inhibition of the current amplitudes of hKv1.3 by NnK-1 analogs: 0.01, 1, 100, or 500 nM; for current of hKv1.3 (current amplitude), effect of treatment: HEK293 cells expressing hKv1.3, bath-applied for 2 min, whole-cell, holding potential –70 mV; for hKv1.3 IV curves, two-way ANOVA group effect p: group effect, 0, 0.01, 1, 100, or 500 nM, Figure 3 IV curves; for hKv1.3 current amplitude at 50 mV, one-way ANOVA p: overall, 0, 0.01, 1, 100, or 500 nM; for inhibition of the current amplitudes of hKv1.3 by NnK-1 analogs: Figure 6
Method: (§1) The amplification was performed in the Veriti™ 96-Well Fast Thermal Cycler (Applied Biosystems, Waltham, MA, USA) with a thermal cycling program consisting of predenaturation for 3 min at 95 °C, followed by 30 cycles of denaturation for 30 s at 95 °C, annealing for 30 s at 58 °C, and extension for 30 s at 72 °C, with a final extension for 3 min at 72 °C. A Human cDNA Clone Set (OriGene Technologies GmbH, Herford, Germany) was used as the template. A MCS (multi-cloning site) digested from the pAAV-MCS vector (Cell Biolabs, San Diego, CA, USA) was ligated into the pIRES2-EGFP vector (Clontech Laboratories, Mountain View, CA, USA) to form pAAV–CMV–IRES2–EGFP. The PCR products were ligated into the pAAV–CMV–IRES2–EGFP vector at the NheI and SalI sites to construct pAAV–CMV–hKv–IRES2–EGFP.
(§2) The HEK293 cells were transfected with pAAV–CMV–hKv–IRES2–EGFP (2 μg) using Effectene Transfection Reagent (Qiagen, Hilden, Germany) for 12–18 h. The transfectants (1 × 10^5/mL) were seeded onto 12 mm coverslips coated with 0.01 mg/mL poly-D-lysine for 2–3 h.
The HEK293 cells expressing AAV–CMV–hKv–IRES2–EGFP were reseeded onto coverslips. The HEK293 transfectants were monitored for their green fluorescence and used as patch cells. Patch pipettes were filled with an internal solution (140 mM potassium gluconate, 10 mM HEPES, 0.2 mM ATP, and 0.06 mM GTP). An external solution [130 mM NaCl, 10 mM HEPES, 3 mM KCl, 1.5 mM D-glucose, 10 mM sucrose, […], 1.5 mM MgCl2·6H2O, osmolarity 320 mmol/kg (pH 7.2)] was used as the basic buffer. Psora4, ShK, or NnK-1 (0, 0.01, 1, 100, or 500 nM) was bath-applied for 2 min to block the currents recorded from the HEK293 cells expressing AAV–CMV–hKv–IRES2–EGFP with voltages ranging from −130 to 50 mV in the increments of 20 mV and 0.6 s. Whole-cell patch recordings from […] under voltage-clamp conditions (holding potential of –70 mV) were made with the Multiclamp 700 B microelectrode amplifier (Automate Scientific Inc., Berkeley, CA, USA) digitized with a Digidata 1322 A data acquisition system (Molecular Devices Limited, San Jose, CA, USA). In this study, all electrophysiological data from the cultured cells were obtained at a temperature of 23–25 °C and maintained with the CL-100 Temperature Controller (Warner Instruments LLC, Hamden, CT, USA).

hKv1.1 = assay: Whole-cell patch-clamp current recording, hKv1.1; assay type: cell-based, human; details: HEK293, bath-applied 2 min
Method: as §1
(§3) The HEK293 cells were transfected with pAAV–CMV–hKv–IRES2–EGFP (2 μg) using Effectene Transfection Reagent (Qiagen, Hilden, Germany) for 12–18 h. […]
(§4) The HEK293 cells expressing AAV–CMV–hKv–IRES2–EGFP were reseeded onto coverslips. The HEK293 transfectants were monitored for their green fluorescence and used as patch cells. […] Psora4, ShK, or NnK-1 (0, 0.01, 1, 100, or 500 nM) was bath-applied for 2 min to block the currents recorded from the HEK293 cells expressing AAV–CMV–hKv–IRES2–EGFP with voltages ranging from −130 to 50 mV in the increments of 20 mV and 0.6 s. […]

hKv3.1 = assay: Whole-cell patch-clamp current recording, hKv3.1; assay type: cell-based, human; details: 100 nM NnK-1; Figure 4E; HEK293, bath-applied 2 min, 23–25 °C
Method: as §1, §3, §4

[1] = tested on: hKv1.3-transfected HEK293 cells; assay: Cell viability assay (CCK-8), hKv1.3-transfected HEK293 cells; assay type: cell-based; details: 1 h treatment, 0.01, 1, 100, and 500 nM; CCK-8, absorbance 450 nm
Method: as §2
(§5) The cell viability of the HEK293 cells was assessed with a Cell Counting Kit-8 (CCK-8, DJDB4000X, Dojindo laboratory, Kumanoto, Japan). Both the HEK293 cells and HEK293 cells expressing AAV–CMV–hKv–IRES2–EGFP were seeded onto a 96-well plate (1 × 10^4 cells/well). After 24 h of incubation, ShK, NnK-1, NnK-1 mu, and NnK-1 w/o d (0, 0.01, 1, 100, or 500 nM) were used to treat the cells in each well for 1 h. After that, a dye solution was used to treat the cells for 2 h, and the absorbance was measured at 450 nm using a microplate reader (GloMax explorer multimode, Promega, Madison, WI, USA).

hKv11.1 = assay: Whole-cell patch-clamp current recording, hKv11.1; assay type: cell-based, human; details: 100 nM NnK-1; Figure 4F; HEK293, bath-applied 2 min, 23–25 °C
Method: as §1, §3, §4

[2] = tested on: untransfected HEK293 cells; assay: Cell viability assay (CCK-8), untransfected HEK293 cells; assay type: cell-based; details: 1 h treatment, 0.01, 1, 100, and 500 nM; CCK-8, absorbance 450 nm
Method: as §5

hKv1.5 = assay: Whole-cell patch-clamp current recording, hKv1.5; assay type: cell-based, human
Method: as §1, §2
(§6) The HEK293 cells expressing AAV–CMV–hKv–IRES2–EGFP were reseeded onto coverslips. The HEK293 transfectants were monitored for their green fluorescence and used as patch cells. Patch pipettes were filled with an internal solution (140 mM potassium gluconate, 10 mM HEPES, 0.2 mM ATP, and 0.06 mM GTP). An external solution [130 mM NaCl, 10 mM HEPES, 3 mM KCl, 1.5 mM D-glucose, 10 mM sucrose, […], 1.5 mM MgCl2·6H2O, osmolarity 320 mmol/kg (pH 7.2)] was used as the basic buffer. Psora4, ShK, or NnK-1 (0, 0.01, 1, 100, or 500 nM) was bath-applied for 2 min to block the currents recorded from the HEK293 cells expressing AAV–CMV–hKv–IRES2–EGFP with voltages ranging from −130 to 50 mV in the increments of 20 mV and 0.6 s. […]

hKv1.4 = assay: Whole-cell patch-clamp current recording, hKv1.4; assay type: cell-based, human
Method: as §1, §2, §6

[3] = Maintenance of disulfide bonds of synthetic NnK-1 in solution; assay type: physicochemical; details: dissolved in a solution; inferred from comparison with NnK-1 w/o d on hKv1.3
Description: Another peptide, NnK-1 w/o d, which had the same amino acid residues but without three pairs of disulfide bonds, was also synthesized to test whether the disulfide bonds were still intact in the synthetic NnK-1 after being dissolved in a solution.

[4] = 0.01 nM, HEK293, bath-applied 2 min, pH 7.2, 23–25 °C
[5] = 1 nM, HEK293, bath-applied 2 min, pH 7.2, 23–25 °C
[6] = 1 nM, bar graph at 50 mV (Figure 3), HEK293, bath-applied 2 min, pH 7.2, 23–25 °C
[7] = 100 nM, HEK293, bath-applied 2 min, pH 7.2, 23–25 °C
[8] = 100 nM, bar graph at 50 mV (Figure 3), HEK293, bath-applied 2 min, pH 7.2, 23–25 °C
[9] = 500 nM, HEK293, bath-applied 2 min, pH 7.2, 23–25 °C
[10] = 500 nM, bar graph at 50 mV (Figure 3), HEK293, bath-applied 2 min, pH 7.2, 23–25 °C
[11] = 100 nM, HEK293, bath-applied 2 min, 23–25 °C (Figure 4)
[12] = electrophysiological assay, summary statement
[13] = HEK293, bath-applied 2 min, 23–25 °C

| Compound | hKv1.3 IV curve, p vs. 0 nM (hKv1.3; [4]) | hKv1.3 IV curve, p vs. 0 nM (hKv1.3; [5]) | reduction of hKv1.3 current amplitude at 50 mV, p vs. 0 nM (hKv1.3; [6]) | hKv1.3 IV curve, p vs. 0 nM (hKv1.3; [7]) | reduction of hKv1.3 current amplitude at 50 mV, p vs. 0 nM (hKv1.3; [8]) | hKv1.3 IV curve, p vs. 0 nM (hKv1.3; [9]) | reduction of hKv1.3 current amplitude at 50 mV, p vs. 0 nM (hKv1.3; [10]) | current of hKv1.3 (current amplitude), effect of treatment (hKv1.3; pH 7.2, 23–25 °C) | hKv1.3 IV curves, two-way ANOVA group effect p (hKv1.3) | hKv1.3 current amplitude at 50 mV, one-way ANOVA p (hKv1.3; Figure 3 bar graphs) | hKv1.3 current amplitude at 50 mV, one-way ANOVA p (hKv1.3; Figure 6 bar graphs) | inhibition of the current amplitudes of hKv1.3 by NnK-1 analogs (hKv1.3; [13]) | other results |
| --- | --- | --- | --- | --- | --- | --- | --- | --- | --- | --- | --- | --- | --- |
| O=c1ccc2c(OCCCCc3ccccc3)c3ccoc3cc2o1 [Psora4, reference compound] | < 0.05 | < 0.0001 | < 0.01 | < 0.0001 | < 0.001 | < 0.0001 | < 0.0001 | significantly reduced | < 0.0001 | < 0.0001 |  |  |  |
| CKDHHTYGVYCKDWKSSGECKKNPKGMRHFCRKTCGFC (disulfide (positions not given here)) [NnK-1, fifth ShK-like peptide of the Nemopilema nomurai NnK-1 precursor, chemically synthesized] | < 0.01 | < 0.0001 | < 0.0001 | < 0.0001 | < 0.0001 | < 0.0001 | < 0.0001 | significantly reduced | < 0.0001 | < 0.0001 | < 0.05 |  | hKv1.1 IV curve, two-way ANOVA group effect p (hKv1.1; 100 nM NnK-1, Figure 4A, 23–25 °C): 0.52; inhibition of the current amplitude of hKv1.1 (hKv1.1; 100 nM, 23–25 °C (Figure 4)): not that of hKv1.1, hKv3.1, and hKv.11.1; hKv3.1 IV curve, two-way ANOVA group effect p (hKv3.1): 0.46; cell viability, hKv1.3-transfected HEK293 [1]: no difference; hKv11.1 IV curve, two-way ANOVA group effect p (hKv11.1): 0.39; cell viability, untransfected HEK293 [2]: no difference; reduction of hKv1.3 current amplitude at 50 mV, p vs. 0 nM (hKv1.3; 0.01 nM, bar graph at 50 mV (Figure 3), HEK293, bath-applied 2 min, pH 7.2, 23–25 °C): < 0.05; hKv1.3 IV curve, two-way ANOVA group effect p (hKv1.3; 100 nM NnK-1, Figure 4B, HEK293, bath-applied 2 min, 23–25 °C): < 0.05; reduction of hKv1.3 current amplitude at 50 mV, p vs. 0 nM (hKv1.3; 100 nM, Figure 6B, HEK293, bath-applied 2 min): < 0.05; inhibition of the current amplitude of hKv1.3 (hKv1.3; [11]): significantly inhibited; reduction of hKv1.3 current amplitude at 50 mV, p vs. 0 nM (hKv1.3; 500 nM, Figure 6B, HEK293, bath-applied 2 min): < 0.05; channel block, hKv1.3 (hKv1.3; [12]): effective blocker; also recorded: Kv1.3-blocking activity; hKv1.5 IV curve, two-way ANOVA group effect p (hKv1.5; 100 nM NnK-1, Figure 4D, HEK293, bath-applied 2 min, 23–25 °C): < 0.001; inhibition of the current amplitude of hKv1.5 (hKv1.5; [11]): significantly inhibited; channel block, hKv1.5 (hKv1.5; [12]): effective blocker; hKv1.4 IV curve, two-way ANOVA group effect p (hKv1.4; 100 nM NnK-1, Figure 4C, HEK293, bath-applied 2 min, 23–25 °C): < 0.01; inhibition of the current amplitude of hKv1.4 (hKv1.4; [11]): significantly inhibited; channel block, hKv1.4 (hKv1.4; [12]): effective blocker; disulfide bonds in solution [3]: maintained even when dissolved in a solution |
| CKDHHTYGVYCKDWKSSGECKKNPKGMRHFCRKTCGFC [NnK-1 w/o d, same amino acid residues as NnK-1 but without three pairs of disulfide bonds] |  |  |  |  |  |  |  |  |  |  | 0.28 | neither NnK-1 mu nor NnK-1 w/o d inhibited the current amplitudes of hKv1.3 |  |
| CKEHHTYGVYCKDWKSSGECKKNPRGMRHFCRKMCGFC (disulfide (positions not given here)) [NnK-1 mu, NnK-1 with three amino acids substituted with 3Glu, 25Arg, and 34Met] |  |  |  |  |  |  |  |  |  |  | 0.89 | neither NnK-1 mu nor NnK-1 w/o d inhibited the current amplitudes of hKv1.3 |  |
